Reference: ChEMBL document CHEMBL3046561, “Feeding deterrents from Dictamnus dasycarpus Turcz against two stored-product insects” (J Agric Food Chem, 2002)

Columns and labels:
[1] = test system: Tribolium castaneum; test: Antifeedant activity against adult of Tribolium castaneum (red flour beetle) assessed as relative consumption rate at 3 ppm after 3 days relative to control; type: functional
[2] = test system: Sitophilus zeamais; test: Antifeedant activity against adult of Sitophilus zeamais assessed as mortality at 300 ppm after 3 days relative to control; type: functional; conditions: 72 h
[3] = test system: Tribolium castaneum; test: Antifeedant activity against larvae of Tribolium castaneum (red flour beetle) assessed as relative consumption rate at 3 ppm after 3 days relative to control; type: functional
[4] = test system: Sitophilus zeamais; test: Antifeedant activity against adult of Sitophilus zeamais assessed as mortality at 100 ppm after 3 days relative to control; type: functional; conditions: 72 h
[5] = test system: Sitophilus zeamais; test: Antifeedant activity against adult of Sitophilus zeamais assessed as efficiency of conversion of ingested food at 3 ppm after 3 days relative to control; type: functional
[6] = test system: Tribolium castaneum; test: Antifeedant activity against larvae of Tribolium castaneum (red flour beetle) assessed as feeding deterrence index at 30 ppm after 3 days relative to control; type: functional
[7] = test system: Sitophilus zeamais; test: Antifeedant activity against adult of Sitophilus zeamais assessed as efficiency of conversion of ingested food at 100 ppm after 3 days relative to control; type: functional
[8] = test system: Tribolium castaneum; test: Antifeedant activity against adult of Tribolium castaneum (red flour beetle) assessed as mortality at 300 ppm after 3 days relative to control; type: functional; conditions: 72 h
[9] = test system: Tribolium castaneum; test: Antifeedant activity against larvae of Tribolium castaneum (red flour beetle) assessed as relative consumption rate at 100 ppm after 3 days relative to control; type: functional
[10] = test system: Sitophilus zeamais; test: Antifeedant activity against adult of Sitophilus zeamais assessed as relative growth rate at 10 ppm after 3 days relative to control; type: functional
[11] = test system: Tribolium castaneum; test: Antifeedant activity against larvae of Tribolium castaneum (red flour beetle) assessed as feeding deterrence index at 3 ppm after 3 days relative to control; type: functional
[12] = test system: Tribolium castaneum; test: Antifeedant activity against larvae of Tribolium castaneum (red flour beetle) assessed as mortality at 10 ppm after 3 days relative to control; type: functional; conditions: 72 h
[13] = test system: Tribolium castaneum; test: Antifeedant activity against adult of Tribolium castaneum (red flour beetle) assessed as efficiency of conversion of ingested food at 100 ppm after 3 days relative to control; type: functional
[14] = test system: Tribolium castaneum; test: Antifeedant activity against larvae of Tribolium castaneum (red flour beetle) assessed as efficiency of conversion of ingested food at 300 ppm after 3 days relative to control; conditions: Instar larval stage, 72 h
[15] = test system: Tribolium castaneum; test: Antifeedant activity against adult of Tribolium castaneum (red flour beetle) assessed as mortality at 10 ppm after 3 days relative to control; type: functional; conditions: 72 h
[16] = test system: Sitophilus zeamais; test: Antifeedant activity against adult of Sitophilus zeamais assessed as efficiency of conversion of ingested food at 300 ppm after 3 days relative to control; type: functional
[17] = test system: Tribolium castaneum; test: Antifeedant activity against larvae of Tribolium castaneum (red flour beetle) assessed as relative growth rate at 300 ppm after 3 days relative to control; type: functional
[18] = test system: Tribolium castaneum; test: Antifeedant activity against adult of Tribolium castaneum (red flour beetle) assessed as relative consumption rate at 10 ppm after 3 days relative to control; type: functional
[19] = test system: Sitophilus zeamais; test: Antifeedant activity against adult of Sitophilus zeamais assessed as relative growth rate at 100 ppm after 3 days relative to control; type: functional
[20] = test system: Tribolium castaneum; test: Antifeedant activity against larvae of Tribolium castaneum (red flour beetle) assessed as relative consumption rate at 30 ppm after 3 days relative to control; type: functional
[21] = test system: Tribolium castaneum; test: Antifeedant activity against larvae of Tribolium castaneum (red flour beetle) assessed as mortality at 100 ppm after 3 days relative to control; type: functional; conditions: 72 h
[22] = test system: Tribolium castaneum; test: Antifeedant activity against adult of Tribolium castaneum (red flour beetle) assessed as efficiency of conversion of ingested food at 3 ppm after 3 days relative to control; type: functional
[23] = test system: Tribolium castaneum; test: Antifeedant activity against larvae of Tribolium castaneum (red flour beetle) assessed as feeding deterrence index at 10 ppm after 3 days relative to control; type: functional
[24] = test system: Tribolium castaneum; test: Antifeedant activity against larvae of Tribolium castaneum (red flour beetle) assessed as efficiency of conversion of ingested food at 100 ppm after 3 days relative to control; type: functional, Instar larval stage
[25] = test system: Sitophilus zeamais; test: Antifeedant activity against adult of Sitophilus zeamais assessed as feeding deterrence index at 10 ppm after 3 days relative to control; type: functional
[26] = test system: Tribolium castaneum; test: Antifeedant activity against larvae of Tribolium castaneum (red flour beetle) assessed as relative growth rate at 100 ppm after 3 days relative to control; type: functional
[27] = test system: Tribolium castaneum; test: Antifeedant activity against adult of Tribolium castaneum (red flour beetle) after 3 days; type: functional, organism-based
[28] = test system: Tribolium castaneum; test: Antifeedant activity against larvae of Tribolium castaneum (red flour beetle) after 3 days; type: functional, organism-based
[29] = test system: Tribolium castaneum; test: Antifeedant activity against adult of Tribolium castaneum (red flour beetle) assessed as relative growth rate at 30 ppm after 3 days relative to control; type: functional
[30] = test system: Sitophilus zeamais; test: Antifeedant activity against adult of Sitophilus zeamais after 3 days; type: functional, organism-based

`COc1c2ccccc2nc2occc12` [DICTAMNINE] was tested. Which Activity [1] did it give?
Its Activity is 132.89 µg/mg/day.

And the mortality at 300 ppm [2]?
The mortality at 300 ppm was 0%.

What about the Activity [3] of the same molecule?
Its Activity is 254.2 µg/mg/day.

What about the mortality at 100 ppm [4] of the same molecule?
The mortality at 100 ppm was 0%.

And the Activity [5]?
Its Activity is 9.1%.

What about the FDI [6] of the same molecule?
Its FDI is 38.52%.

And the Activity [7]?
Its Activity is 9.73%.

What about the mortality at 300 ppm [8] of the same molecule?
Its mortality at 300 ppm is 2%.

What about the Activity [9] of the same molecule?
Its Activity is 123.74 µg/mg/day.

And the Activity [10]?
The Activity was 14.32 µg/mg/day.

What about the FDI [11] of the same molecule?
Its FDI is 4.59%.

And the mortality at 10 ppm [12]?
The mortality at 10 ppm was 0%.

And the Activity [13]?
The Activity was 17.88%.

What about the mortality at 300 ppm [14] of the same molecule?
Its mortality at 300 ppm is 13.2%.

And the mortality at 10 ppm [15]?
Its mortality at 10 ppm is 0%.

And the Activity [16]?
Its Activity is 6.81%.

And the Activity [17]?
The Activity was 7.08 µg/mg/day.

What about the Activity [18] of the same molecule?
The Activity was 129.71 µg/mg/day.

What about the Activity [19] of the same molecule?
Its Activity is 9.49 µg/mg/day.

What about the Activity [20] of the same molecule?
Its Activity is 168.23 µg/mg/day.

And the mortality at 100 ppm [21]?
The mortality at 100 ppm was 0%.

What about the Activity [22] of the same molecule?
The Activity was 21.25%.

What about the FDI [23] of the same molecule?
Its FDI is 21.77%.

And the Activity [24]?
Its Activity is 17.43%.

What about the FDI [25] of the same molecule?
The FDI was 17.87%.

For `CC1=C2C(=O)O[C@@H](c3ccoc3)[C@]2(C)CCC1` [FRAXINELLONE], which Activity [26] is on record?
The Activity was 11.71 µg/mg/day.

What about the Activity [1] of the same molecule?
Its Activity is 140.68 µg/mg/day.

What about the mortality at 300 ppm [2] of the same molecule?
The mortality at 300 ppm was 4%.

And the Activity [3]?
The Activity was 233.06 µg/mg/day.

And the mortality at 100 ppm [4]?
Its mortality at 100 ppm is 0%.

And the EC50 [27]?
The EC50 was 36.4 ppm.

What about the Activity [5] of the same molecule?
Its Activity is 11.41%.

And the FDI [6]?
The FDI was 50.33%.

And the Activity [7]?
Its Activity is 9.66%.

And the mortality at 300 ppm [8]?
The mortality at 300 ppm was 4%.

And the Activity [9]?
Its Activity is 127.99 µg/mg/day.

What about the Activity [10] of the same molecule?
Its Activity is 13.29 µg/mg/day.

And the FDI [11]?
Its FDI is 11.65%.

What about the mortality at 10 ppm [12] of the same molecule?
The mortality at 10 ppm was 0%.

What about the Activity [13] of the same molecule?
The Activity was 17.57%.

What about the mortality at 10 ppm [15] of the same molecule?
The mortality at 10 ppm was 0%.

What about the Activity [16] of the same molecule?
Its Activity is 6.56%.

And the Activity [17]?
Its Activity is -8.44 µg/mg/day.

What about the Activity [18] of the same molecule?
The Activity was 120.94 µg/mg/day.

What about the EC50 [28] of the same molecule?
Its EC50 is 29.1 ppm.

And the Activity [19]?
The Activity was 7.05 µg/mg/day.

What about the Activity [29] of the same molecule?
Its Activity is 19.84 µg/mg/day.

What about the Activity [20] of the same molecule?
Its Activity is 163.61 µg/mg/day.

What about the EC50 [30] of the same molecule?
The EC50 was 71.2 ppm.

What about the mortality at 100 ppm [21] of the same molecule?
The mortality at 100 ppm was 0%.

And the Activity [22]?
The Activity was 21.68%.

And the FDI [23]?
The FDI was 24.45%.

What about the Activity [24] of the same molecule?
The Activity was 13.65%.

What about the FDI [25] of the same molecule?
The FDI was 15.68%.
